Like-named read-outs stand apart in the source and are kept apart here.
Legend:
Colon carcinoma = assay: Inhibition of primary tumor cell cultures (48 hours) vs NK1 receptor immunostaining (Example 1); type: cell-based; settings: Homo sapiens, 1 micromolar, read-out: Percentage of inhibition of cell cultures
Procedure: (§1) Cell cultures. To obtain tumor cells from human primary tumors we used the method described in De Bari et al. (De Bari et al. 2001). Briefly, small pieces of the tumors were digested into a hyaluronidase solution (Sigma-Aldrich, USA) at a concentration of 1 mg/ml during 15 minutes at 37°C, and then they were treated with 6 mg/ml of collagenase type IV (Invitrogen) during 2 hours at 37°C. Consecutively, cells were washed, and resuspended in the DMEM culture medium with high concentration of glucose (Dulbecco's Modified Eagle's Medium, Invitrogen) supplemented with 1% of antibiotics-antimycotics (Invitrogen) and with 1% of sodium pyruvate (Invitrogen), and the cells were seeded in culture slides at a concentration of 10.000 cells per square centimeter. When cells reached confluence, the adherent cells were separated using sterile trypsin at 0,5% (Invitrogen) and they were used among passages 3 and 9. For the assays shown next, tumor cells were seeded on slides at a concentration of 25.000 cells per well. A total of 6 wells containing the tumor cells were used as survival control. […] All the cultures were kept during 48 hours and later on recollected for their analysis.
(§2) Immunohistochemistry techniques. The presence of NK1 receptors was also analyzed using immunohistochemistry techniques. Briefly, a sample of each of the cultures of the cell lines used in the present invention, was centrifuged (5 minutes at 1.500 rpm) and the pellet obtained was dehydrated using increasing concentrations of ethanol and, finally, xylol. Then, said dehydrated samples were embedded in paraffin, creating a block of cells. Such paraffin blocks were cut with a microtome at 5 microns thickness, and were placed on microscope slides adequate to perform immunohistochemistry techniques. Consecutively, they were de-paraffinized by immersing them in xylol, to be finally hydrated using a solution containing decreasing concentrations of ethanol, and finally submerged them into water. […] After this, the samples were left to cool down at room temperature for 10 minutes. The endogenous peroxidase activity was blocked with 3% peroxide of hydrogen for 30 minutes at room temperature. After washing the samples with 0.05 M of Tris buffer, they were incubated with 10% non-immune pork serum at for 30 minutes at room temperature. To analyze the expression of NK1 receptors, the cellular samples were incubated in the presence of anti-NK1 antibodies (S8305, Sigma-Aldrich) diluted 1:1000, overnight at 4°C. Afterwards, the samples were washed in Tris buffer 0.05 M at room temperature. The next step was the addition of Envision System-HRP (Dako) reagents for 30 minutes at room temperature. Then, the samples were washed again in Tris buffer 0.05 M and the immunoreactivity was visualized through light microscopy with a chromogenic solution containing 3,3'-Diaminobenzidine (DAB+; Dako, USA). To differentiate the cell nuclei, they were slightly stained with hematoxylin. As negative control, it was used samples not incubated with the primary antibody anti-NK1, which was replaced by non-immune serum. All the samples were evaluated.
(§3) To value the immunostaining in each of the cases six cuts were performed to be analyzed by the immunohistochemistry technique. In each of the six cuts, it was counted cells in 20 fields (magnification 400x) using an Olympus microscope (model CX31). In each field it was counted the total number of cells and the number of cells presenting immunostaining, calculating afterwards the percentage of cells which presented immunostaining.

Neuroblastoma = assay: as above; type: cell-based; settings: Homo sapiens, 1 micromolar, read-out: Percentage of inhibition of cell cultures
Procedure: as §1, §2, §3

Pancreatic carcinoma = assay: as above; type: cell-based; settings: Homo sapiens, 1 micromolar, read-out: Percentage of inhibition of cell cultures
Procedure: as §1, §2, §3

[1] = tested on: Urinary bladder carcinoma (transitional cell carcinoma); assay: Inhibition of primary tumor cell cultures vs Kras mutation (Example 2); type: cell-based, human; settings: Homo sapiens, 100 micromolar, read-out: Percentage of inhibition of cell cultures
Procedure: To obtain tumor cells from human primary tumors we used the method described in De Bari et al. (De Bari et al. 2001). Briefly, small pieces of the tumors were digested into a hyaluronidase solution (Sigma-Aldrich, USA) at a concentration of 1 mg/ml during 15 minutes at 37°C, and then they were treated with 6 mg/ml of collagenase type IV (Invitrogen) during 2 hours at 37°C. Consecutively, cells were washed, and resuspended in the DMEM culture medium with high concentration of glucose (Dulbecco's Modified Eagle's Medium, Invitrogen) supplemented with 1% of antibiotics-antimycotics (Invitrogen) and with 1% of sodium pyruvate (Invitrogen), and the cells were seeded in culture slides at a concentration of 10.000 cells per square centimeter. When cells reached confluence, the adherent cells were separated using sterile trypsin at 0,5% (Invitrogen) and they were used among passages 3 and 9. For the assays shown next, tumor cells were seeded on slides at a concentration of 25.000 cells per well. A total of 6 wells containing the tumor cells were used as survival control. […] All the cultures were kept during 48 hours and later on recollected for their analysis.
(§4) In each case the presence or not of mutations in K-ras gene was determined.
(§5) To determine the existence of mutations in the K-ras gene DNA from cancer tumor cells was extracted from samples obtained from the different cancer tumor cells, using DNA extraction kits from Takara (Madison, WI, US) or Ambion (Huntingdon, Cambridgeshire, United Kingdom), following the manufacturer's instructions, and as it has been previously published (Di Fiore F, et al. 2007). Consecutively it was analyzed by sequencing the exon 2 of the KRAS gene, , by means of PCR amplification from previously extracted cancer tumor DNA, using the following sense primer (SEQ ID NO. 15): 5'-[sequence]-3' and anti-sense primer (SEQ ID NO. 16): 5'-[sequence]-3'. After the purification using the Qiagen extraction kit, the PCR products were sequenced using the Big Dye Terminator Kit V3.1 (Applied Biosystems, Foster City, CA, U.S.) and an ABI Prism 377 or 3100 DNA sequencer (Applied Biosystems). The presence of a heterozygous mutation in the KRAS gene in cancer tumor cells of the cultures was defined as the appearance of a mutant peak of a height of at least a third of the wild type. All the sequence analysis were executed at least twice in two independent PCR.
(§6) The antibody against NK1 receptor (Table 16) was used at 1/50 concentration. The percentages of inhibition are expressed in percentage of variation in relation to control ± standard deviation.

[2] = tested on: Malignant Fibrous Histiocytoma; assay: Inhibition of primary tumor cell cultures (48 hours) vs NK1 receptor immunostaining (Example 1); type: cell-based; settings: Homo sapiens, 1 micromolar, read-out: Percentage of inhibition of cell cultures
Procedure: as §1, §2, §3

[3] = tested on: Gastric carcinoma (Adenocarcinoma); assay: Inhibition of primary tumor cell cultures vs Kras mutation (Example 2); type: cell-based, human; settings: Homo sapiens, 100 micromolar, read-out: Percentage of inhibition of cell cultures
Procedure: (§7) Cell cultures. […] Briefly, small pieces of the tumors were digested into a hyaluronidase solution (Sigma-Aldrich, USA) at a concentration of 1 mg/ml during 15 minutes at 37°C, and then they were treated with 6 mg/ml of collagenase type IV (Invitrogen) during 2 hours at 37°C. Consecutively, cells were washed, and resuspended in the DMEM culture medium with high concentration of glucose (Dulbecco's Modified Eagle's Medium, Invitrogen) supplemented with 1% of antibiotics-antimycotics (Invitrogen) and with 1% of sodium pyruvate (Invitrogen), and the cells were seeded in culture slides at a concentration of 10.000 cells per square centimeter. When cells reached confluence, the adherent cells were separated using sterile trypsin at 0,5% (Invitrogen) and they were used among passages 3 and 9. For the assays shown next, tumor cells were seeded on slides at a concentration of 25.000 cells per well. A total of 6 wells containing the tumor cells were used as survival control. […] All the cultures were kept during 48 hours and later on recollected for their analysis.
as §4, §5, §6

Gastric carcinoma = assay: Inhibition of primary tumor cell cultures (48 hours) vs NK1 receptor immunostaining (Example 1); type: cell-based; settings: Homo sapiens, 1 micromolar, read-out: Percentage of inhibition of cell cultures
Procedure: as §1, §2, §3

Burkitt Lymphoma = assay: Inhibition of primary tumor cell cultures vs Kras mutation (Example 2); type: cell-based, human; settings: Homo sapiens, 100 micromolar, read-out: Percentage of inhibition of cell cultures
Procedure: as §1, §4, §5, §6

[4] = tested on: Lung carcinoma (non small cell type); assay: Inhibition of primary tumor cell cultures (48 hours) vs NK1 receptor immunostaining (Example 1); type: cell-based; settings: Homo sapiens, 1 micromolar, read-out: Percentage of inhibition of cell cultures
Procedure: as §1, §2, §3

[5] = tested on: human primary tumor cells; assay: Inhibition of primary tumor cell cultures vs amplification of the gene encoding the NK1 receptor (Example 6; tumor type per table line); type: cell-based; settings: 100 micromolar
Procedure: as §7
The presence or absence of the amplification of the gene encoding for the NK1 receptor was determined, and then the cells were cultured in the presence of several antagonists of the NK1 receptor.
For each case, the presence or absence of amplification of the gene encoding for the NK1 receptor was determined.
In order to determine the presence of the amplification (increase in the number of copies) of the gene encoding the NK1 receptor (TAC1R), it was used the comparative genomic hybridization technique (CGH Array). Firstly genomic DNA was extracted from each case. Later, it was performed the marking and hybridization of the DNA of each sample together with DNA of a commercial reference without genomic alterations (from masculine or feminine sex, depending on the gender of the patient from whom the samples were obtained). The Array is Sureprint G3 Human CGH Microarray from the company Agilent was used, with an average separation between probes of 5.3Kb and 4.6Kb for the genes RefSeq. The reading of the microarray was done with the DNA Microarray Scanner G2565CA from Agilent, at a resolution of 3 µm. The analysis of the results was performed with the software Cytogenomics v 2.0.6.0 from Agilent with ADM-2: 6.0; Centralization: ON (Threshold: 6.0, Bin size: 10); Fuzzy zero: ON; Aberration filters: ON (minProbes=5 and minAvgAbsLopRatio= 0,5); Feature Level Filters : ON. The genomic coordinates are coincident with the NCBI36genome (hg18). Cases were distributed in two groups: Group I for those cases without the amplification of the gene encoding the NK1 receptor (locus 2p13.1-p12), and Group II for those cases with amplification of the gene encoding the NK1receptor (locus 2p13.1-p12).
The antibody against NK1 receptor (Table 36) was used at 1/50 concentration. The percentages of inhibition are expressed in percentages of variation in relation to control ± standard deviation.

[6] = NK1 receptor immunostaining Group 1 (less than 20% of the cells)
[7] = NK1 receptor immunostaining Group 2 (20-80% of the cells)
[8] = NK1 receptor immunostaining Group 3 (more than 80% of the cells)
[9] = NK1 receptor immunostaining Intensity grade 1
[10] = NK1 receptor immunostaining Intensity grade 2
[11] = NK1 receptor immunostaining Intensity grade 3
[12] = Cases with Kras non-mutated (wild type)

## CC(=O)N1CCN([C@H]2CCN(C(=O)N(C)[C@H](C)c3cc(C(F)(F)F)cc(C(F)(F)F)c3)[C@@H](c3ccc(F)cc3C)C2)CC1 [Casopitant]
Colon carcinoma; [6]
  inhibition at 1 µM: 13 ± 3%
Colon carcinoma; [7]
  inhibition at 1 µM: 46 ± 3%
Colon carcinoma; [8]
  inhibition at 1 µM: 92 ± 3%
Colon carcinoma; [9]
  inhibition at 1 µM: 32 ± 4%
Colon carcinoma; [10]
  inhibition at 1 µM: 54 ± 4%
Colon carcinoma; [11]
  inhibition at 1 µM: 92 ± 2%
Neuroblastoma; [6]
  inhibition at 1 µM: 16 ± 2%
Neuroblastoma; [7]
  inhibition at 1 µM: 45 ± 4%
Neuroblastoma; [8]
  inhibition at 1 µM: 94 ± 4%
Neuroblastoma; [9]
  inhibition at 1 µM: 35 ± 4%
Neuroblastoma; [10]
  inhibition at 1 µM: 55 ± 5%
Neuroblastoma; [11]
  inhibition at 1 µM: 94 ± 4%
Pancreatic carcinoma; [6]
  inhibition at 1 µM: 10 ± 4%
Pancreatic carcinoma; [7]
  inhibition at 1 µM: 45 ± 2%
Pancreatic carcinoma; [8]
  inhibition at 1 µM: 92 ± 4%
Pancreatic carcinoma; [9]
  inhibition at 1 µM: 33 ± 5%
Pancreatic carcinoma; [10]
  inhibition at 1 µM: 53 ± 3%
Pancreatic carcinoma; [11]
  inhibition at 1 µM: 93 ± 1%
[1]; Cases with Kras mutated
  inhibition at 100 µM: 25 ± 4%
[1]; [12]
  inhibition at 100 µM: 95 ± 6%
[2]; [6]
  inhibition at 1 µM: 14 ± 3%
[2]; [7]
  inhibition at 1 µM: 46 ± 4%
[2]; [8]
  inhibition at 1 µM: 94 ± 5%
[2]; [9]
  inhibition at 1 µM: 32 ± 5%
[2]; [10]
  inhibition at 1 µM: 53 ± 4%
[2]; [11]
  inhibition at 1 µM: 93 ± 2%
[3]; Cases with Kras mutated
  inhibition at 100 µM: 25 ± 5%
[3]; [12]
  inhibition at 100 µM: 95 ± 5%
Gastric carcinoma; [6]
  inhibition at 1 µM: 12 ± 4%
Gastric carcinoma; [7]
  inhibition at 1 µM: 46 ± 2%
Gastric carcinoma; [8]
  inhibition at 1 µM: 90 ± 2%
Gastric carcinoma; [9]
  inhibition at 1 µM: 31 ± 3%
Gastric carcinoma; [10]
  inhibition at 1 µM: 53 ± 3%
Gastric carcinoma; [11]
  inhibition at 1 µM: 91 ± 3%
Burkitt Lymphoma; Cases with Kras mutated
  inhibition at 100 µM: 25 ± 2%
Burkitt Lymphoma; [12]
  inhibition at 100 µM: 92 ± 5%
[4]; [6]
  inhibition at 1 µM: 10 ± 2%
[4]; [7]
  inhibition at 1 µM: 46 ± 2%
[4]; [8]
  inhibition at 1 µM: 92 ± 5%
[4]; [9]
  inhibition at 1 µM: 32 ± 4%
[4]; [10]
  inhibition at 1 µM: 54 ± 4%
[4]; [11]
  inhibition at 1 µM: 93 ± 3%
[5]; Breast carcinoma (ductal adenocarcinoma), Cases with amplification of the gene that encodes for the NK1 receptor
  Percentage of inhibition of cell cultures: 94±7 percentage
[5]; Breast carcinoma (ductal adenocarcinoma), Cases without amplification of the gene that encodes for the NK1 receptor
  Percentage of inhibition of cell cultures: 23±8 percentage
[5]; Burkitt Lymphoma, Cases with amplification of the gene that encodes for the NK1 receptor
  Percentage of inhibition of cell cultures: 93±6 percentage
[5]; Burkitt Lymphoma, Cases without amplification of the gene that encodes for the NK1 receptor
  Percentage of inhibition of cell cultures: 24±5 percentage
[5]; Carcinoma of the uterine cervix (Squamous cell carcinoma), Cases with amplification of the gene that encodes for the NK1 receptor
  Percentage of inhibition of cell cultures: 94±6 percentage
[5]; Carcinoma of the uterine cervix (Squamous cell carcinoma), Cases without amplification of the gene that encodes for the NK1 receptor
  Percentage of inhibition of cell cultures: 23±6 percentage
[5]; Colon carcinoma (Adenocarcinoma), Cases with amplification of the gene that encodes for the NK1 receptor
  Percentage of inhibition of cell cultures: 96±4 percentage
[5]; Colon carcinoma (Adenocarcinoma), Cases without amplification of the gene that encodes for the NK1 receptor
  Percentage of inhibition of cell cultures: 24±4 percentage
[5]; Endometrium carcinoma, Cases with amplification of the gene that encodes for the NK1 receptor
  Percentage of inhibition of cell cultures: 96±5 percentage
[5]; Endometrium carcinoma, Cases without amplification of the gene that encodes for the NK1 receptor
  Percentage of inhibition of cell cultures: 24±4 percentage
[5]; Gastric carcinoma (Adenocarcinoma), Cases with amplification of the gene that encodes for the NK1 receptor
  Percentage of inhibition of cell cultures: 95±5 percentage
[5]; Gastric carcinoma (Adenocarcinoma), Cases without amplification of the gene that encodes for the NK1 receptor
  Percentage of inhibition of cell cultures: 23±5 percentage
[5]; Glioma (astrocytoma), Cases with amplification of the gene that encodes for the NK1 receptor
  Percentage of inhibition of cell cultures: 95±4 percentage
[5]; Glioma (astrocytoma), Cases without amplification of the gene that encodes for the NK1 receptor
  Percentage of inhibition of cell cultures: 24±6 percentage
[5]; Lung carcinoma (non small cell lung carcinoma), Cases with amplification of the gene that encodes for the NK1 receptor
  Percentage of inhibition of cell cultures: 96±5 percentage
[5]; Lung carcinoma (non small cell lung carcinoma), Cases without amplification of the gene that encodes for the NK1 receptor
  Percentage of inhibition of cell cultures: 26±6 percentage
[5]; Lung carcinoma (small cell lung carcinoma), Cases with amplification of the gene that encodes for the NK1 receptor
  Percentage of inhibition of cell cultures: 95±4 percentage
[5]; Lung carcinoma (small cell lung carcinoma), Cases without amplification of the gene that encodes for the NK1 receptor
  Percentage of inhibition of cell cultures: 24±4 percentage
[5]; Melanoma (Nodular Melanoma), Cases with amplification of the gene that encodes for the NK1 receptor
  Percentage of inhibition of cell cultures: 97±5 percentage
[5]; Melanoma (Nodular Melanoma), Cases without amplification of the gene that encodes for the NK1 receptor
  Percentage of inhibition of cell cultures: 26±4 percentage
[5]; Non Hodgkin Lymphoma B (diffuse B cell lymphoma), Cases with amplification of the gene that encodes for the NK1 receptor
  Percentage of inhibition of cell cultures: 95±7 percentage
[5]; Non Hodgkin Lymphoma B (diffuse B cell lymphoma), Cases without amplification of the gene that encodes for the NK1 receptor
  Percentage of inhibition of cell cultures: 27±5 percentage
[5]; Non Hodgkin Lymphoma T (diffuse T cell lymphoma), Cases with amplification of the gene that encodes for the NK1 receptor
  Percentage of inhibition of cell cultures: 95±5 percentage
[5]; Non Hodgkin Lymphoma T (diffuse T cell lymphoma), Cases without amplification of the gene that encodes for the NK1 receptor
  Percentage of inhibition of cell cultures: 28±7 percentage
[5]; Ovarian carcinoma(Adenocarcinoma), Cases with amplification of the gene that encodes for the NK1 receptor
  Percentage of inhibition of cell cultures: 95±4 percentage
[5]; Ovarian carcinoma(Adenocarcinoma), Cases without amplification of the gene that encodes for the NK1 receptor
  Percentage of inhibition of cell cultures: 24±5 percentage
[5]; Pancreatic carcinoma (Adenocarcinoma), Cases with amplification of the gene that encodes for the NK1 receptor
  Percentage of inhibition of cell cultures: 97±5 percentage
[5]; Pancreatic carcinoma (Adenocarcinoma), Cases without amplification of the gene that encodes for the NK1 receptor
  Percentage of inhibition of cell cultures: 26±6 percentage
[5]; Prostate carcinoma, Cases with amplification of the gene that encodes for the NK1 receptor
  Percentage of inhibition of cell cultures: 96±5 percentage
[5]; Prostate carcinoma, Cases without amplification of the gene that encodes for the NK1 receptor
  Percentage of inhibition of cell cultures: 27±5 percentage
[5]; Renal cell carcinoma (clear cell renal cell carcinoma), Cases with amplification of the gene that encodes for the NK1 receptor
  Percentage of inhibition of cell cultures: 93±6 percentage
[5]; Renal cell carcinoma (clear cell renal cell carcinoma), Cases without amplification of the gene that encodes for the NK1 receptor
  Percentage of inhibition of cell cultures: 27±7 percentage
[5]; Thyroid carcinoma (follicular carcinoma), Cases with amplification of the gene that encodes for the NK1 receptor
  Percentage of inhibition of cell cultures: 94±6 percentage
[5]; Thyroid carcinoma (follicular carcinoma), Cases without amplification of the gene that encodes for the NK1 receptor
  Percentage of inhibition of cell cultures: 26±5 percentage
[5]; Thyroid carcinoma (papillary carcinoma), Cases with amplification of the gene that encodes for the NK1 receptor
  Percentage of inhibition of cell cultures: 96±5 percentage
[5]; Thyroid carcinoma (papillary carcinoma), Cases without amplification of the gene that encodes for the NK1 receptor
  Percentage of inhibition of cell cultures: 24±7 percentage
